The test system of data set [1] is Bacillus subtilis ATCC 6633. Kind of data set: minimum inhibitory concentration (agar plate growth inhibition). Format: cell-based. As to the method: (§1) The mixture or composition prepared as in Example 1 was tested to determine the minimum inhibitory concentration (MIC) of the composition against various microorganisms (i.e., bacteria, yeast and fungi) according to the following procedure:
(§2) (1) Tryptic Soy Agar (TSA) was prepared according to the manufacturer's directions by suspending 40 g TSA in cold deionized water (1 liter). The suspension was heated to boiling in order to dissolve completely and then autoclaved for 15 minutes at 15 pounds pressure at 121° C.
(§3) (2) After autoclaving, the media was cooled to 45° C. in a water bath.
(§4) (3) At this point, the mixture was aseptically added to the TSA at different levels in order to obtain the desired test concentrations.
(§5) (1) The bacteria and yeast inoculum consisted of 0.1 ml of a 1:100 saline dilution of an overnight TSB broth culture (10-10 CFU/ml). CFU=Colony Forming Units.
(§6) (3) A sterile Dacron swab was used to spread the inoculum evenly over the entire agar surface.
(§7) (1) The bacteria and yeast plates were incubated at 35° C. for 48 hours.

For data set [2], the system named is Candida albicans ATCC 10231. Described as above. Type of data set: cell-based. How it is done:
as §1, §2, §3, §4, §5, §6, §7

The test system of data set [3] is Enterobacter cloacae ATCC 23355. The data set is described as above. Type of data set: cell-based. As to the method: as §1, §2, §3, §4, §5, §6, §7
Data set [4] relates to Escherichia coli ATCC 8739. The description is as above. Type of data set: cell-based. As to the method:
as §1, §2, §3, §4, §5, §6, §7

For data set [5], the system named is Klebsiella pneumoniae ATCC 8308. The data set is described as above. Type of data set: cell-based. As to the method:
as §1, §2, §3, §4, §5, §6, §7

Data set [6] concerns Proteus vulgaris ATCC 13315. The description is as above. Type of data set: cell-based. As to the method:
as §1, §2, §3, §4, §5, §6, §7

Data set [7] deals with Pseudomonas aeruginosa ATCC 13388. Described as above. Format: cell-based. How it is done:
as §1, §2, §3, §4, §5, §6, §7

The subject of data set [8] is Pseudomonas aeruginosa ATCC 14502. Described as above. Format: cell-based. How it is done:
as §1, §2, §3, §4, §5, §6, §7

Data set [9] concerns Pseudomonas aeruginosa ATCC 15442. The description is as above. Format: cell-based. As to the method: as §1, §2, §3, §4, §5, §6, §7
Data set [10] deals with Pseudomonas aeruginosa ATCC 9027. The data set is described as above. Format: cell-based. As to the method:
as §1, §2, §3, §4, §5, §6, §7

A further data set deals with Pseudomonas stutzeri. The data set is described as above. Format: cell-based. The following applies: Stutzerimonas stutzeri, 48 h. As to the method: as §1, §2, §3, §4, §5, §6, §7
For the next data set, the system named is Saccharomyces cerevisiae. The data set is described as above. Type of data set: cell-based. As to conditions: 48 h. As to the method:
as §1, §2, §3, §4, §5, §6, §7

Data set [11] concerns Salmonella typhosa ATCC 6539. The description is as above. As to conditions: Salmonella enterica, 48 h. Format: cell-based. How it is done:
as §1, §2, §3, §4, §5, §6, §7

For data set [12], the system named is Serratia marcescens ATCC 8100. The data set is described as above. Format: cell-based. As to the method: as §1, §2, §3, §4, §5, §6, §7
In data set [13] the test system is Staphylococcus aureus ATCC 6538. The data set is described as above. Type of data set: cell-based. How it is done: as §1, §2, §3, §4, §5, §6, §7
In data set [14] the test system is Staphylococcus epidermidis ATCC 1228. The data set is described as above. Type of data set: cell-based. How it is done:
as §1, §2, §3, §4, §5, §6, §7

The next data set has as its system Streptococcus faecalis. The data set is described as above. Type of data set: cell-based. The following applies: Enterococcus faecalis, 48 h. As to the method:
as §1, §2, §3, §4, §5, §6, §7

For data set [15], the system named is Aspergillus niger ATCC 9642. The data set is described as above. Type of data set: cell-based. As to the method:
as §1, §2, §3, §4
(§8) (2) The fungus inoculum consisted of 0.1 ml of a spore-saline suspension harvested by gently rubbing the spores from a 1-week old Sabourand dextrose agar slant incubated at 25° C. with sterile saline (10-10 CFU/ml).
as §6
(§9) (2) The fungus plates were incubated at 30° C. for 72-96 hours.

Data set [16] has as its system Penicillium chrysogenum ATCC 9480. The data set is described as above. Format: cell-based. As to the method: as §1, §2, §3, §4, §8, §6, §9
Data set [17] has as its system Trichophyton mentagrophytes. The data set is described as above. Format: cell-based. How it is done:
as §1, §2, §3, §4, §8, §6, §9

A further data set in a line: physchem. As to conditions: water.
[18] abbreviates: ATCC6633, TSA, 35° C., 48 h, read-out: MIC.
[19] abbreviates: ATCC10231, TSA, 35° C., 48 h, read-out: MIC.
[20] abbreviates: ATCC23355, TSA, 35° C., 48 h, read-out: MIC.
[21] abbreviates: ATCC8739, TSA, 35° C., 48 h, read-out: MIC.
Setting [22] is: ATCC8308, TSA, 35° C., 48 h, read-out: MIC.
Where [23] appears, read: ATCC13315, TSA, 35° C., 48 h, read-out: MIC.
Setting [24] is: ATCC13388, TSA, 35° C., 48 h, read-out: MIC.
[25] abbreviates: ATCC14502, TSA, 35° C., 48 h, read-out: MIC.
Where [26] appears, read: ATCC15442, TSA, 35° C., 48 h, read-out: MIC.
Setting [27] is: ATCC9027, TSA, 35° C., 48 h, read-out: MIC.
Where [28] appears, read: ATCC8100, TSA, 35° C., 48 h, read-out: MIC.
Setting [29] is: ATCC6538, TSA, 35° C., 48 h, read-out: MIC.
[30] abbreviates: ATCC1228, TSA, 35° C., 48 h, read-out: MIC.
The mark [31] stands for this setting: ATCC9642, TSA, 30° C., 72-96 h, read-out: MIC.
[32] abbreviates: ATCC9480, TSA, 30° C., 72-96 h, read-out: MIC.
Setting [33] is: TSA, 30° C., 72-96 h, read-out: MIC.

≈ marks a conversion by molar mass, not a printed value. Where two headings read alike, the source gives them in different places.

As a reminder, the MIC is the least concentration at which growth counts as inhibited. A word on the solubility: it is how much of the substance goes into solution per volume. The low end stands for a poorly soluble substance, the high end for a readily soluble substance. As to `CC(C)COC(=O)c1ccc(O)cc1` [Isobutyl p-Hydroxybenzoate, isobutyl p-hydroxybenzoate], the MIC in data set [1] (setting [18]) is 250 µg/mL (≈ 1290 µM); in data set [2] (setting [19]), 125 µg/mL (≈ 644 µM); in data set [3] (setting [20]) it was 1000 µg/mL (≈ 5150 µM); in data set [4] (setting [21]) it was above 1000 µg/mL; in [5] (setting [22]), 500 µg/mL (≈ 2570 µM); in data set [6] (setting [23]) it was 250 µg/mL (≈ 1290 µM). Besides, the minimal inhibitory concentration (MIC) is above 1000 µg/mL in data set [7] (setting [24]); above 1000 µg/mL in [8] (setting [25]); above 1000 µg/mL in data set [9] (setting [26]); above 1000 µg/mL in [10] (setting [27]); above 1000 µg/mL in the data set with Pseudomonas stutzeri (TSA, 35° C., read-out: MIC); 125 µg/mL (≈ 644 µM) with Saccharomyces cerevisiae (TSA, 35° C., read-out: MIC). Moreover, the MIC in data set [11] came out at 1000 µg/mL (≈ 5150 µM); in [12] (setting [28]), 1000 µg/mL (≈ 5150 µM); in data set [13] (setting [29]) it was 250 µg/mL (≈ 1290 µM); in data set [14] (setting [30]), 250 µg/mL (≈ 1290 µM); in the data set on Streptococcus faecalis (TSA, 35° C., read-out: MIC), 500 µg/mL (≈ 2570 µM); in data set [15] (setting [31]), 250 µg/mL (≈ 1290 µM). In addition, the MIC in [16] (setting [32]) is 125 µg/mL (≈ 644 µM); in data set [17] (setting [33]) it was 63 µg/mL (≈ 324 µM). The compound also registered a solubility in the data set “physchem” of 200 µg/mL (≈ 1030 µM).

Regarding `CC(C)OC(=O)c1ccc(O)cc1` [Isopropyl p-Hydroxybenzoate, isopropyl p-hydroxybenzoate], the MIC in data set [1] (setting [18]) was found to be 500 µg/mL (≈ 2770 µM); in data set [2] (setting [19]), 250 µg/mL (≈ 1390 µM); in data set [3] (setting [20]) it was 1000 µg/mL (≈ 5550 µM); in data set [4] (setting [21]), 1000 µg/mL (≈ 5550 µM); in [5] (setting [22]), 500 µg/mL (≈ 2770 µM); in data set [6] (setting [23]) it was 500 µg/mL (≈ 2770 µM). The minimal inhibitory concentration (MIC) was above 2000 µg/mL in data set [7] (setting [24]); above 2000 µg/mL in [8] (setting [25]); above 2000 µg/mL in data set [9] (setting [26]); 2000 µg/mL (≈ 11100 µM) in data set [10] (setting [27]); 1000 µg/mL (≈ 5550 µM) with Pseudomonas stutzeri (TSA, 35° C., read-out: MIC); below 125 µg/mL in the data set on Saccharomyces cerevisiae (TSA, 35° C., read-out: MIC). In addition, the minimum inhibitory concentration (MIC) in data set [11] was 1000 µg/mL (≈ 5550 µM); in [12] (setting [28]), 1000 µg/mL (≈ 5550 µM); in data set [13] (setting [29]) it was 1000 µg/mL (≈ 5550 µM); in [14] (setting [30]) it was 500 µg/mL (≈ 2770 µM); with Streptococcus faecalis (TSA, 35° C., read-out: MIC), 1000 µg/mL (≈ 5550 µM); in data set [15] (setting [31]), 250 µg/mL (≈ 1390 µM). For the same compound, the MIC in data set [16] (setting [32]) and in data set [17] (setting [33]) was below 125 µg/mL throughout. Besides, the concentration in solution in “physchem” (solubility) came to 800 µg/mL (≈ 4440 µM).

Turning to `CCCCOC(=O)c1ccc(O)cc1` [n-Butyl p-Hydroxybenzoate, n-butyl p-hydroxybenzoate], the MIC was determined as 250 µg/mL (≈ 1290 µM) in data set [1] (ATCC6633, 48 h); 125 µg/mL (≈ 644 µM) in data set [2] (ATCC10231, 48 h); 250 µg/mL (≈ 1290 µM) in data set [3] (ATCC23355, 48 h); 500 µg/mL (≈ 2570 µM) in data set [4] (ATCC8739, 48 h); 250 µg/mL (≈ 1290 µM) in data set [5] (ATCC8308, 48 h); 125 µg/mL (≈ 644 µM) in data set [6] (ATCC13315, 48 h). The MIC in [7] (ATCC13388, 48 h) is above 6000 µg/mL; in data set [8] (ATCC14502, 48 h) it was above 6000 µg/mL; in data set [9] (ATCC15442, 48 h), above 6000 µg/mL; in data set [10] (ATCC9027, 48 h), above 6000 µg/mL; with Pseudomonas stutzeri, 500 µg/mL (≈ 2570 µM); against Saccharomyces cerevisiae, 32 µg/mL (≈ 165 µM). Further, the MIC stood at 500 µg/mL (≈ 2570 µM) in data set [11]; 500 µg/mL (≈ 2570 µM) in data set [12] (ATCC8100, 48 h); 125 µg/mL (≈ 644 µM) in data set [13] (ATCC6538, 48 h); 250 µg/mL (≈ 1290 µM) in data set [14] (ATCC1228, 48 h); 250 µg/mL (≈ 1290 µM) in the data set on Streptococcus faecalis; 125 µg/mL (≈ 644 µM) in data set [15] (ATCC9642). Besides, the figures for the minimum inhibitory concentration (MIC) in [16] (ATCC9480) and in data set [17] were 63 µg/mL (≈ 324 µM) and 32 µg/mL (≈ 165 µM), respectively. The amount in solution in the data set “water solubility” (solubility) came to 150 µg/mL (≈ 772 µM).

These data come from patent US4496576A, “Compositions of p-hydroxybenzoic acid esters and methods of preparation and use” (priority 1983, dated 1985).
